US12350270B2, “Antimalarial agents” (Merck Sharp & Dohme LLC, priority 2019, dated 2025)
pEC50: −log10 of the molar value.

System: parasites (ring stage, in human red blood cell culture)
Test: Parasite LDH growth assay (antiparasite potency, Parasite Assay)
Type: cell-based, Plasmodium falciparum
Settings: 0.7% rings, 2% haematocrit, 72 hours at 37° C., LDH readout of parasite growth
Protocol: Assessing Antiparasite Potency in a Parasite LDH Growth Assay (Parasite Assay)
The parasite stock was maintained at 4% haematocrit in RPMI-Hepes media buffered with sodium bicarbonate and supplemented with 5% heat inactivated human serum and 0.5% albumax.
On the day of assay set up, a blood smear of the parasite culture was Giemsa stained and counted. The parasitemia was adjusted to 0.7% rings and the haematocrit was diluted to 2% in RPMI-Hepes media buffered with sodium bicarbonate and supplemented with 5% heat inactivated human serum and 0.5% albumax. 30 ul of diluted parasites are then added into 10 ul of media+compound in pre-prepared Greiner TC assay plates. Parasite assay plates were placed in gassed humidified boxes in single layer and allowed to incubate at 37° C. for 72 hours. After 72 hours growth, assay plates are sealed with parafilm and frozen flat, in single file at −80° C. overnight. On the following day, assay plates are allowed to thaw at room temperature for 4 hours to which an LDH assay is performed to measure parasite growth.

How did the pEC50 turn out when CC[C@]1(C)CC(=O)N([C@@H]2CCOc3ccc(C(=O)NC4c5cc(F)ccc5OCC4(C)O)cc32)C(=N)N1 (single isomer, unassigned) [Example 190C] was run?
Its pEC50 is 8.31.

With CC[C@]1(C)CC(=O)N([C@@H]2CCOc3ccc(C(=O)NC4c5c(F)cccc5OCC4(C)O)cc32)C(=N)N1 (single isomer, unassigned) [Example 193A] as the compound, how does the pEC50 read?
The pEC50 was 7.02.

With CC[C@]1(C)CC(=O)N([C@@H]2CCOc3ccc(C(=O)NC4c5c(F)cccc5OCC4(C)O)cc32)C(=N)N1 (single isomer, unassigned) [Example 193B] as the compound, how does the pEC50 read?
The pEC50 was 9.10.

CC[C@]1(C)CC(=O)N([C@@H]2CCOc3ccc(C(=O)NC4c5c(F)cccc5OCC4(C)O)cc32)C(=N)N1 (single isomer, unassigned) [Example 193C] was tested. Which pEC50 did it give?
The pEC50 was 7.71.

With COCC1(C)Oc2ccc(C(=O)N[C@H]3CC(C)(C)Oc4ccccc43)cc2C1N1C(=N)NC(C)(C)CC1=O (single isomer, unassigned) [Example 214A] as the compound, how does the pEC50 read?
Its pEC50 is 8.09.

With COCC1(C)Oc2ccc(C(=O)N[C@H]3CC(C)(C)Oc4ccccc43)cc2C1N1C(=N)NC(C)(C)CC1=O (single isomer, unassigned) [Example 214B] as the compound, how does the pEC50 read?
Its pEC50 is 6.59.

How did the pEC50 turn out when CCC1(CC)CC(=O)N([C@@H]2CCOc3ccc(C(=O)NC4c5cc(F)ccc5OCC4(C)O)cc32)C(=N)N1 (single isomer, unassigned) [Example 226A] was run?
The pEC50 was 8.59.

How did the pEC50 turn out when CCC1(CC)CC(=O)N([C@@H]2CCOc3ccc(C(=O)NC4c5cc(F)ccc5OCC4(C)O)cc32)C(=N)N1 (single isomer, unassigned) [Example 226B] was run?
The pEC50 was 7.16.

How did the pEC50 turn out when CCC1(CC)CC(=O)N([C@@H]2CCOc3ccc(C(=O)NC4c5cc(F)ccc5OCC4(C)O)cc32)C(=N)N1 (single isomer, unassigned) [Example 226C] was run?
Its pEC50 is 6.56.

How did the pEC50 turn out when CCC1(CC)CC(=O)N([C@@H]2CCOc3ccc(C(=O)NC4c5cc(F)ccc5OCC4(C)O)cc32)C(=N)N1 (single isomer, unassigned) [Example 226D] was run?
Its pEC50 is 9.00.

How did the pEC50 turn out when CC1(C)CC(=O)N([C@@H]2CCOc3ccc(C(=O)NC4c5ccccc5OCC4(O)C(F)(F)F)cc32)C(=N)N1 (single isomer, unassigned) [Example 234A] was run?
Its pEC50 is 7.65.

How did the pEC50 turn out when CC1(C)CC(=O)N([C@@H]2CCOc3ccc(C(=O)NC4c5ccccc5OCC4(O)C(F)(F)F)cc32)C(=N)N1 (single isomer, unassigned) [Example 234B] was run?
Its pEC50 is 8.41.

CC1(C)CC(=O)N([C@@H]2CCOc3ccc(C(=O)NC4c5ccccc5OCC4(O)C(F)(F)F)cc32)C(=N)N1 (single isomer, unassigned) [Example 234C] was tested. Which pEC50 did it give?
Its pEC50 is 7.36.

How did the pEC50 turn out when CCC1(CC)CC(=O)N([C@@H]2CCOc3ccc(C(=O)NC4c5ccccc5OC(C)(C)C4(C)O)cc32)C(=N)N1 (single isomer, unassigned) [Example 242A] was run?
Its pEC50 is 9.22.

With CCC1(CC)CC(=O)N([C@@H]2CCOc3ccc(C(=O)NC4c5ccccc5OC(C)(C)C4(C)O)cc32)C(=N)N1 (single isomer, unassigned) [Example 242B] as the compound, how does the pEC50 read?
Its pEC50 is 7.98.

How did the pEC50 turn out when CCC1(CC)CC(=O)N(C2c3cc(C(=O)N[C@@H]4c5ccccc5OC(C)(C)[C@H]4O)ccc3CC2OC)C(=N)N1 (single isomer, unassigned) [Example 251A] was run?
Its pEC50 is 9.40.

With CCC1(CC)CC(=O)N(C2c3cc(C(=O)N[C@@H]4c5ccccc5OC(C)(C)[C@H]4O)ccc3CC2OC)C(=N)N1 (single isomer, unassigned) [Example 251B] as the compound, how does the pEC50 read?
The pEC50 was 8.82.

How did the pEC50 turn out when CCC1(CC)CC(=O)N(C2c3cc(C(=O)N[C@@H]4c5ccccc5OC(C)(C)[C@H]4O)ccc3CC2OC)C(=N)N1 (single isomer, unassigned) [Example 251C] was run?
The pEC50 was 7.07.

How did the pEC50 turn out when CCC1(CC)CC(=O)N([C@@H]2CCOc3ccc(C(=O)NC4c5ccc(OC)cc5OCC4(C)O)cc32)C(=N)N1 (single isomer, unassigned) [Example 258A] was run?
Its pEC50 is 7.07.

With CCC1(CC)CC(=O)N([C@@H]2CCOc3ccc(C(=O)NC4c5ccc(OC)cc5OCC4(C)O)cc32)C(=N)N1 (single isomer, unassigned) [Example 258B] as the compound, how does the pEC50 read?
The pEC50 was 8.62.

How did the pEC50 turn out when CCC1(CC)CC(=O)N([C@@H]2CCOc3ccc(C(=O)NC4c5ccc(OC)cc5OCC4(C)O)cc32)C(=N)N1 (single isomer, unassigned) [Example 258C] was run?
The pEC50 was 6.65.

How did the pEC50 turn out when CCC1(CC)CC(=O)N([C@@H]2CCOc3ccc(C(=O)NC4c5ccc(OC)cc5OCC4(C)O)cc32)C(=N)N1 (single isomer, unassigned) [Example 258D] was run?
The pEC50 was 8.17.

CCC1(CC)CC(=O)N([C@@H]2CCOc3ccc(C(=O)NC4c5c(OC)cccc5OCC4(C)O)cc32)C(=N)N1 (single isomer, unassigned) [Example 259A] was tested. Which pEC50 did it give?
Its pEC50 is 8.26.

With CCC1(CC)CC(=O)N([C@@H]2CCOc3ccc(C(=O)NC4c5c(OC)cccc5OCC4(C)O)cc32)C(=N)N1 (single isomer, unassigned) [Example 259B] as the compound, how does the pEC50 read?
Its pEC50 is 7.62.

CCC1(CC)CC(=O)N([C@@H]2CCOc3ccc(C(=O)NC4c5c(OC)cccc5OCC4(C)O)cc32)C(=N)N1 (single isomer, unassigned) [Example 259C] was tested. Which pEC50 did it give?
Its pEC50 is 8.44.

How did the pEC50 turn out when CCC1(CC)CC(=O)N([C@@H]2CCOc3ccc(C(=O)NC4c5c(OC)cccc5OCC4(C)O)cc32)C(=N)N1 (single isomer, unassigned) [Example 259D] was run?
The pEC50 was 7.97.

With CCC1(CC)CC(=O)N([C@@H]2CCOc3ccc(C(=O)NC4c5ccccc5CC4(O)C(F)(F)F)cc32)C(=N)N1 (single isomer, unassigned) [Example 272A] as the compound, how does the pEC50 read?
The pEC50 was 7.20.

With CCC1(CC)CC(=O)N([C@@H]2CCOc3ccc(C(=O)NC4c5ccccc5CC4(O)C(F)(F)F)cc32)C(=N)N1 (single isomer, unassigned) [Example 272B] as the compound, how does the pEC50 read?
Its pEC50 is 7.84.

CCC1(CC)CC(=O)N([C@@H]2CCOc3ccc(C(=O)NC4c5ccccc5CC4(O)C(F)(F)F)cc32)C(=N)N1 (single isomer, unassigned) [Example 272C] was tested. Which pEC50 did it give?
Its pEC50 is 9.05.

With CCC1(CC)CC(=O)N([C@@H]2CCOc3ccc(C(=O)NC4c5ccccc5CC4(O)C(F)(F)F)cc32)C(=N)N1 (single isomer, unassigned) [Example 272D] as the compound, how does the pEC50 read?
Its pEC50 is 8.64.

How did the pEC50 turn out when COCC1(C)CC(N2C(=N)NC(C)(C)CC2=O)c2cc(C(=O)N[C@@H]3c4ccccc4OC(C)(C)[C@H]3O)ccc2O1 (single isomer, unassigned) [Example 282A] was run?
Its pEC50 is 8.11.

COCC1(C)CC(N2C(=N)NC(C)(C)CC2=O)c2cc(C(=O)N[C@@H]3c4ccccc4OC(C)(C)[C@H]3O)ccc2O1 (single isomer, unassigned) [Example 282B] was tested. Which pEC50 did it give?
The pEC50 was 7.39.

Same assay, conditions: Plasmodium falciparum, Erythrocyte, 72 h, 0.7% rings, 2% haematocrit, 72 hours at 37° C., LDH readout of parasite growth

CCC1(CC)CC(=O)N([C@H]2c3cc(C(=O)NC4c5ccccc5C(F)(F)[C@@H]4O)ccc3O[C@@]2(C)COC)C(=N)N1 (stereo in doubt) [Example 291, (2R,3S)-3-(4,4-diethyl-2-imino-6-oxo-hexahydropyrimidin-1-yl)-N-[(1S,2R)-3,3-difluoro-2-hydroxy-indan-1-yl]-2-(methoxymethyl)-2-methyl-3H-benzofuran-5-carboxamide] was tested. Which pEC50 did it give?
Its pEC50 is 6.62.

CCC1(CC)CC(=O)N(C2CCOc3ccc(C(=O)N[C@H]4CC(C)(C)Oc5ccccc54)cc32)C(=N)N1 (stereo partly drawn) [Example 1A, 4-(4,4-diethyl-2-imino-6-oxotetrahydropyrimidin-1(2H)-yl)-N—((S)-2,2-dimethylchroman-4-yl)chroman-6-carboxamide] was tested. Which pEC50 did it give?
Its pEC50 is 9.30.

How did the pEC50 turn out when CCC1(CC)CC(=O)N(C2CCOc3ccc(C(=O)N[C@@H]4c5ccccc5OC(C)(C)[C@H]4O)cc32)C(=N)N1 (stereo partly drawn) [Example 2A, 4-(4,4-diethyl-2-imino-6-oxotetrahydropyrimidin-1(2H)-yl)-N-((3S,4R)-3-hydroxy-2,2-dimethylchroman-4-yl)chroman-6-carboxamide] was run?
The pEC50 was 9.30.

How did the pEC50 turn out when CCC1(CC)CC(=O)N([C@@H]2CCOc3ccc(C(=O)N[C@H]4CCOc5ccccc54)cc32)C(=N)N1 [Example 3A, (R)-N-((S)-chroman-4-yl)-4-(4,4-diethyl-2-imino-6-oxotetrahydropyrimidin-1(2H)-yl)chromane-6-carboxamide] was run?
The pEC50 was 8.66.

How did the pEC50 turn out when CCC1(CC)CC(=O)N([C@@H]2CCOc3ccc(C(=O)N[C@@H](C)c4ccccc4)cc32)C(=N)N1 [Example 4A, (R)-4-(4,4-diethyl-2-imino-6-oxotetrahydropyrimidin-1(2H)-yl)-N-((S)-1-phenylethyl)chromane-6-carboxamide] was run?
Its pEC50 is 7.06.

With CCC1(CC)CC(=O)N([C@@H]2CCOc3ccc(C(=O)N[C@@H]4c5ccccc5C[C@H]4O)cc32)C(=N)N1 [Example 5A, (R)-4-(4,4-diethyl-2-imino-6-oxotetrahydropyrimidin-1(2H)-yl)-N-((1R,2R)-2-hydroxy-2,3-dihydro-1H-inden-1-yl)chromane-6-carboxamide] as the compound, how does the pEC50 read?
Its pEC50 is 8.23.

How did the pEC50 turn out when CCC1(CC)CC(=O)N([C@@H]2CCOc3ccc(C(=O)N[C@H]4C[C@H](C(F)(F)F)Oc5ccccc54)cc32)C(=N)N1 [Example 6A, (R)-4-(4,4-diethyl-2-imino-6-oxotetrahydropyrimidin-1(2H)-yl)-N-((2R,4S)-2-(trifluoromethyl)chroman-4-yl)chromane-6-carboxamide] was run?
The pEC50 was 8.96.

CCC1(CC)CC(=O)N([C@@H]2CCOc3ccc(C(=O)N[C@@H]4C[C@@H](C(F)(F)F)Oc5ccccc54)cc32)C(=N)N1 [Example 6B, (R)-4-(4,4-diethyl-2-imino-6-oxotetrahydropyrimidin-1(2H)-yl)-N-((2S,4R)-2-(trifluoromethyl)chroman-4-yl)chromane-6-carboxamide] was tested. Which pEC50 did it give?
Its pEC50 is 8.06.
